The source of these data is US12275729B2 (Merck Sharp & Dohme LLC, priority 2017, dated 2025).

In one test the target is IDO1 (Homo sapiens, UniProt P14902). Nature of the test: IDO1 Cellular Assay in HeLa Cells Stimulated with IFNγ. The class given is cell-based. The conditions noted are these: about 48 hours, read-out: Hela IC50.
IDO1, sequence (P14902 whole entry): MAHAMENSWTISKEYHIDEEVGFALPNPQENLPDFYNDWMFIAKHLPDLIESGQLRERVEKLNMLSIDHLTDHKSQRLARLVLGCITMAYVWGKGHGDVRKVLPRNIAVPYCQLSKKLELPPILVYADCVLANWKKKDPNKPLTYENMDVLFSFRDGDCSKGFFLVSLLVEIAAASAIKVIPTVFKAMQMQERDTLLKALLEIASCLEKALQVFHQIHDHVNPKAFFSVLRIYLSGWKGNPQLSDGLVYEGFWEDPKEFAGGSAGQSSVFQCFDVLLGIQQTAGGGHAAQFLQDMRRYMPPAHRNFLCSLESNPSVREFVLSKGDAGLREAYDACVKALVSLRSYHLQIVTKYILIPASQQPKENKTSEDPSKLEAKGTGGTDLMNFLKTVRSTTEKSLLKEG
`CC(C(=O)Nc1ccc(F)cc1)c1ccc2c(c1)CCCN2C1CCOCC1` (centres unmarked) [Example 230, N-(4-fluorophenyl)-2-[1-(oxan-4-yl)-1,2,3,4-tetrahydroquinolin-6-yl]propanamide]: the IC50 (in general, the midpoint of a concentration-inhibition curve) was found to be 5790 nM. As to `C[C@H](C(=O)Nc1ccc(F)cc1)c1ccc2c(c1)CCCN2C(=O)CC(C)(C)C` [Example 90, (2S)-2-[1-(3,3-dimethylbutanoyl)-1,2,3,4-tetrahydroquinolin-6-yl]-N-(4-fluorophenyl)propanamide], the IC50 turned out to be 7 nM. Consider `CC(=O)N1CCCc2nc(C3(NC(=O)c4ccc(F)cc4)CC3)ccc21` [Example 174, N-[1-(5-acetyl-5,6,7,8-tetrahydro-1,5-naphthyridin-2-yl)cyclopropyl]-4-fluorobenzamide], for which the IC50 stood at 266 nM. As to `C[C@H](C(=O)Nc1ccc(F)cn1)c1ccc2c(c1)CCCN2C(=O)C1CC1` (single isomer, unassigned) [Example 61], the IC50 is 9.4 nM. On to `N#Cc1cccc(C(=O)N2CCCc3cc(C4(C(=O)Nc5ccc(F)cn5)CCC4)ccc32)c1` [Example 108, 1-[1-(3-cyanobenzene-1-carbonyl)-1,2,3,4-tetrahydroquinolin-6-yl]-N-(5-fluoropyridin-2-yl)cyclobutane-1-carboxamide], for which the IC50 was determined as 4.9 nM.

On to `O=C(N1CCCc2cc(C3(C(=O)Nc4ccc(F)cn4)CCC3)ccc21)C1(F)CC1` [Example 99, 1-[1-(1-fluorocyclopropane-1-carbonyl)-1,2,3,4-tetrahydroquinolin-6-yl]-N-(5-fluoropyridin-2-yl)cyclobutane-1-carboxamide], for which the IC50 is 16.8 nM. For `Cc1n[nH]c(C(=O)N2CCCc3cc(C(C)C(=O)Nc4ccc(F)cc4)ccc32)n1` (centres unmarked) [Example 42, N-(4-fluorophenyl)-2-[1-(3-methyl-1H-1,2,4-triazole-5-carbonyl)-1,2,3,4-tetrahydroquinolin-6-yl]propanamide], the concentration for half-maximal inhibition (IC50) is 38.4 nM.

Take `O=C(NC1(c2ccc3c(n2)CCCN3C(=O)C2CCCCO2)CC1)c1ccc(F)cc1` (centres unmarked) [Example 177, 4-fluoro-N-{1-[5-(oxane-2-carbonyl)-5,6,7,8-tetrahydro-1,5-naphthyridin-2-yl]cyclopropyl}benzamide]: the IC50 was determined as 7.5 nM.

Regarding `Cn1ccc(C(=O)NCc2ccc3c(c2)CCCN3C(=O)c2cccc(Cl)c2)n1` [Example 25, N-{[1-(3-chlorobenzene-1-carbonyl)-1,2,3,4-tetrahydroquinolin-6-yl]methyl}-1-methyl-1H-pyrazole-3-carboxamide], the IC50 is 136 nM. In the case of `CC(NC(=O)c1ccc(F)cc1)c1ccc2c(n1)CCCN2c1cc(C(F)(F)F)ncn1` (centres unmarked) [Example 235, 4-fluoro-N-(1-{5-[6-(trifluoromethyl)pyrimidin-4-yl]-5,6,7,8-tetrahydro-1,5-naphthyridin-2-yl}ethyl)benzamide], the IC50 amounted to 17 nM.

As for `O=C(C1CCOCC1)N1CCCc2nc(C3(C(=O)Nc4ccc(F)cc4)CCC3)ccc21` [Example 181, N-(4-fluorophenyl)-1-[5-(oxane-4-carbonyl)-5,6,7,8-tetrahydro-1,5-naphthyridin-2-yl]cyclobutane-1-carboxamide], the IC50 amounted to 3.1 nM.

With `CC(C)(C(=O)Nc1ccc(F)cc1)c1ccc2c(n1)CCCN2C(=O)C1CCOCC1` [Example 186, N-(4-fluorophenyl)-2-methyl-2-[5-(oxane-4-carbonyl)-5,6,7,8-tetrahydro-1,5-naphthyridin-2-yl]propanamide], the IC50 is 5.9 nM. As to `C[C@H](C(=O)Nc1ccc(F)cc1)c1ccc2c(c1)CCCN2C(=O)CC#N` [Example 85, (2S)-2-[1-(cyanoacetyl)-1,2,3,4-tetrahydroquinolin-6-yl]-N-(4-fluorophenyl)propanamide], the IC50 was found to be 2540 nM. Regarding `O=C(Nc1ccc(F)cc1)C1(c2ccc3c(n2)CCN3c2ccccn2)CCC1` [Example 271, N-(4-fluorophenyl)-1-[1-(pyridin-2-yl)-2,3-dihydro-1H-pyrrolo[3,2-b]pyridin-5-yl]cyclobutane-1-carboxamide], the IC50 turned out to be 10.9 nM.

For `C[C@@H](NC(=O)c1ccc(Cl)cc1)c1ccc2c(n1)OCCN2C(=O)c1cccc(Cl)c1` (single isomer, unassigned) [Example 255, 4-Chloro-N-(1-(1-(3-chlorobenzoyl)-2,3-dihydro-1H-pyrido[2,3-b][1,4]oxazin-6-yl)ethyl)benzamide], the IC50 was determined as 74.6 nM. `O=C(NC1(c2ccc3c(n2)CCCN3C(=O)[C@H]2CCCO2)CC1)c1ccc(F)cc1` [Example 176, 4-fluoro-N-(1-{5-[(2R)-oxolane-2-carbonyl]-5,6,7,8-tetrahydro-1,5-naphthyridin-2-yl}cyclopropyl)benzamide]: the IC50 amounted to 9.7 nM.

For the compound `O=C(c1cc(C2CC2)n[nH]1)N1CCCc2cc(C3(C(=O)Nc4ccc(F)cc4)CCC3)ccc21` [Example 117, 1-[1-(3-cyclopropyl-1H-pyrazole-5-carbonyl)-1,2,3,4-tetrahydroquinolin-6-yl]-N-(4-fluorophenyl)cyclobutane-1-carboxamide], the IC50 turned out to be 17.7 nM.

`Cc1ccnc(C(=O)N2CCCc3nc(C4(C(=O)Nc5ccc(F)cc5)COC4)ccc32)n1` [Example 400, N-(4-fluorophenyl)-3-(5-(4-methylpyrimidine-2-carbonyl)-5,6,7,8-tetrahydro-1,5-naphthyridin-2-yl)oxetane-3-carboxamide]: the IC50 amounted to 1.91 nM. Consider `CC(C)C(=O)N1CCCc2cc([C@H](C)C(=O)Nc3ccc(F)cc3)ccc21` [Example 83, (2S)-N-(4-fluorophenyl)-2-[1-(2-methylpropanoyl)-1,2,3,4-tetrahydroquinolin-6-yl]propanamide], for which the IC50 worked out at 9.4 nM. `O=C(NC1(c2ccc3c(n2)CCCN3C(=O)C2CC2)CCC1)c1ccc(Cl)cc1` [Example 183, 4-chloro-N-{1-[5-(cyclopropanecarbonyl)-5,6,7,8-tetrahydro-1,5-naphthyridin-2-yl]cyclobutyl}benzamide]: the IC50 was 5.2 nM. Turning to `CCN(C(=O)N1CCc2cc(C3(C(=O)Nc4ccc(Cl)cc4)CCC3)ccc21)C(C)C` [Example 274, 5-{1-[(4-chlorophenyl)carbamoyl]cyclobutyl}-N-ethyl-N-(propan-2-yl)-2,3-dihydro-1H-indole-1-carboxamide], the IC50 came out at 3.3 nM. The same measure, in the same setting: the figure for `Cc1cc(C(=O)NCc2ccc3c(c2)CCCN3C(=O)CC(C)C)ccc1Cl` [Example 4, 4-chloro-3-methyl-N-{[1-(3-methylbutanoyl)-1,2,3,4-tetrahydroquinolin-6-yl]methyl}benzamide] is 298 nM; for `CC(C(=O)Nc1ccc(F)cc1)c1ccc2c(n1)CCCN2C(=O)[C@@H]1CCCO1` (single isomer, unassigned) [Example 163] it is 21.8 nM; for `CC(C(=O)Nc1ccc(F)cc1)c1ccc2c(c1)CCCN2C(=O)C1(C(F)(F)F)CC1` (centres unmarked) [Example 66, N-(4-fluorophenyl)-2-{1-[1-(trifluoromethyl)cyclopropane-1-carbonyl]-1,2,3,4-tetrahydroquinolin-6-yl}propanamide] it is 7.2 nM. Regarding `CC(NC(=O)c1ccc(F)cc1)c1ccc2c(n1)C(F)(F)CCN2C(=O)C1CC1` (single isomer, unassigned) [Example 195, N-(1-(5-(cyclopropanecarbonyl)-8,8-difluoro-5,6,7,8-tetrahydro-1,5-naphthyridin-2-yl)ethyl)-4-fluorobenzamide], the IC50 was found to be 9540 nM. Take `Cc1cc(N2CCCc3nc(C4(NC(=O)c5ccc(F)cc5)CC4)ccc32)ccn1` [Example 243, 4-fluoro-N-{1-[5-(2-methylpyridin-4-yl)-5,6,7,8-tetrahydro-1,5-naphthyridin-2-yl]cyclopropyl}benzamide]: the IC50 worked out at 14.3 nM. Regarding `CCn1ccc(C(=O)N2CCCc3nc(C(C)NC(=O)c4ccc(F)cc4)ccc32)n1` (stereo in doubt) [Example 143, N-{(1R)-1-[5-(1-ethyl-1H-pyrazole-3-carbonyl)-5,6,7,8-tetrahydro-1,5-naphthyridin-2-yl]ethyl}-4-fluorobenzamide], the IC50 is 11.5 nM. On to `CC(NC(=O)c1ccc(F)cc1)c1ccc2c(n1)CCCN2C(=O)OCCF` (centres unmarked) [Example 210, 2-fluoroethyl 6-{1-[(4-fluorobenzene-1-carbonyl)amino]ethyl}-3,4-dihydro-1,5-naphthyridine-1(2H)-carboxylate], for which the IC50 stood at 5.5 nM. `Cn1cc(C(=O)N2CCCc3nc(C4(NC(=O)c5ccc(F)cc5)CC4)ccc32)cn1` [Example 173, 4-fluoro-N-{1-[5-(1-methyl-1H-pyrazole-4-carbonyl)-5,6,7,8-tetrahydro-1,5-naphthyridin-2-yl]cyclopropyl}benzamide]: the IC50 is 39.9 nM. On the same count and under the same terms, the figure for `CC(NC(=O)c1ccc(F)cc1)c1ccc2c(c1)CCCN2C(CO)c1cccc(Cl)c1` (single isomer, unassigned) [Example 94] is 236 nM.

Staying with this test, now noted: read-out: Hela IC50.
Consider `CC(NC(=O)c1ccc(F)cc1)c1ccc2c(n1)CCCN2C(=O)OCc1ccn(C)n1` (centres unmarked) [Example 317, (1-methyl-1H-pyrazol-3-yl)methyl 6-(1-(4-fluorobenzamido)ethyl)-3,4-dihydro-1,5-naphthyridine-1(2H)-carboxylate], for which the IC50 worked out at 21.1 nM.

With `CC(NC(=O)c1ccc(F)cc1)c1ccc2c(n1)CCCN2c1cccc(C(F)(F)F)n1` (centres unmarked) [Example 354, 4-fluoro-N-(1-(5-(6-(trifluoromethyl)pyridin-2-yl)-5,6,7,8-tetrahydro-1,5-naphthyridin-2-yl)ethyl)benzamide], the IC50 was determined as 10.5 nM. Still for that read-out and setting: the figure for `O=C(OC1CC1)N1CCCc2nc(C3(C(=O)Nc4ccc(Cl)cc4)CCC3)ccc21` [Example 411, cyclopropyl 6-(1-((4-chlorophenyl)carbamoyl)cyclobutyl)-3,4-dihydro-1,5-naphthyridine-1(2H)-carboxylate] is 0.73 nM.

With `COc1ccnc(N2CCCc3nc(C(C)NC(=O)c4ccc(F)cc4)ccc32)c1` (centres unmarked) [Example 377, 4-fluoro-N-(1-(5-(4-methoxypyridin-2-yl)-5,6,7,8-tetrahydro-1,5-naphthyridin-2-yl)ethyl)benzamide], the IC50 was 315 nM.

For `CC(C)Oc1cccc(N2CCCc3nc(C(C)NC(=O)c4ccc(Cl)cc4)ccc32)n1` (centres unmarked) [Example 353, 4-chloro-N-(1-(5-(6-isopropoxypyridin-2-yl)-5,6,7,8-tetrahydro-1,5-naphthyridin-2-yl)ethyl)benzamide], the IC50 worked out at 77.2 nM.
